Measurements taken from PMC8452302 (CPT: Pharmacometrics & Systems Pharmacology, 2021).
Where two headings read alike, the source gives them in different places.

T1: OATP1B3 (Homo sapiens, UniProt Q9NPD5)
T1 sequence (Q9NPD5 1-702): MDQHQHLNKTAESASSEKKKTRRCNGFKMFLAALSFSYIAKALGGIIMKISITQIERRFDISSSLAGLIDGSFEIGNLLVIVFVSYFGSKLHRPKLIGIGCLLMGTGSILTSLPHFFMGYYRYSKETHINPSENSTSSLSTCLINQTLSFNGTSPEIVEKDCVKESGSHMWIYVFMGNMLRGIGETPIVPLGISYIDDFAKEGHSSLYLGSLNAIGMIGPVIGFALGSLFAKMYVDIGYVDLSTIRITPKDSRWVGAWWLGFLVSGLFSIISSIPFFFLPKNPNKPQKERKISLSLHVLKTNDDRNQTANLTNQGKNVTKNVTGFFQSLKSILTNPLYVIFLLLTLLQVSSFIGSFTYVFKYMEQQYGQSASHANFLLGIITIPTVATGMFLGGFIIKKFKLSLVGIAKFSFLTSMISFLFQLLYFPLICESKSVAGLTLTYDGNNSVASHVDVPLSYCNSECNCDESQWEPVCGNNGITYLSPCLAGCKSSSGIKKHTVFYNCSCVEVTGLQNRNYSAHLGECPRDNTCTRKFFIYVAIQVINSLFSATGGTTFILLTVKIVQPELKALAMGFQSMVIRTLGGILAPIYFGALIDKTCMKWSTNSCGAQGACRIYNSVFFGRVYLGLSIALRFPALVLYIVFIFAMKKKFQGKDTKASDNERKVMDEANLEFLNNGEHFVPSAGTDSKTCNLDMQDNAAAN

T2: OATP1B1 (Homo sapiens, UniProt Q9Y6L6)
T2 sequence (Q9Y6L6 1-691): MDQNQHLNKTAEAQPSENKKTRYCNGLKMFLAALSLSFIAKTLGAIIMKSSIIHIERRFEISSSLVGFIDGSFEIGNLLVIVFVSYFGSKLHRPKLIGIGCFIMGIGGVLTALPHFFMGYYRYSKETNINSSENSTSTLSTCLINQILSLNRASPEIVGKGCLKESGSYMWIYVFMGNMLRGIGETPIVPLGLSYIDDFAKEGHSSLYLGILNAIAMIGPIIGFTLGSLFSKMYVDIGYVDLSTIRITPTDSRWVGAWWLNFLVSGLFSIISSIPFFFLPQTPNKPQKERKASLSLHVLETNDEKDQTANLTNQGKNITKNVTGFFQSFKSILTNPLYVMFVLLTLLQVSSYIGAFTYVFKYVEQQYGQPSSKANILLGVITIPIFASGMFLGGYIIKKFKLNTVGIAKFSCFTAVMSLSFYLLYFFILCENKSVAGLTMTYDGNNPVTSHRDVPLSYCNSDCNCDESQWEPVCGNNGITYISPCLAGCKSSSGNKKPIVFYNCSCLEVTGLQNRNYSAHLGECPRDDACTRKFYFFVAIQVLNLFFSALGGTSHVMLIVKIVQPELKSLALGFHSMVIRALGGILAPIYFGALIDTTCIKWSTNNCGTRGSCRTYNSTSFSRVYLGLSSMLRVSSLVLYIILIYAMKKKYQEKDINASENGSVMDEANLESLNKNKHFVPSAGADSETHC

T3: BCRP (Homo sapiens, UniProt Q9UNQ0)
T3 sequence (Q9UNQ0 1-655): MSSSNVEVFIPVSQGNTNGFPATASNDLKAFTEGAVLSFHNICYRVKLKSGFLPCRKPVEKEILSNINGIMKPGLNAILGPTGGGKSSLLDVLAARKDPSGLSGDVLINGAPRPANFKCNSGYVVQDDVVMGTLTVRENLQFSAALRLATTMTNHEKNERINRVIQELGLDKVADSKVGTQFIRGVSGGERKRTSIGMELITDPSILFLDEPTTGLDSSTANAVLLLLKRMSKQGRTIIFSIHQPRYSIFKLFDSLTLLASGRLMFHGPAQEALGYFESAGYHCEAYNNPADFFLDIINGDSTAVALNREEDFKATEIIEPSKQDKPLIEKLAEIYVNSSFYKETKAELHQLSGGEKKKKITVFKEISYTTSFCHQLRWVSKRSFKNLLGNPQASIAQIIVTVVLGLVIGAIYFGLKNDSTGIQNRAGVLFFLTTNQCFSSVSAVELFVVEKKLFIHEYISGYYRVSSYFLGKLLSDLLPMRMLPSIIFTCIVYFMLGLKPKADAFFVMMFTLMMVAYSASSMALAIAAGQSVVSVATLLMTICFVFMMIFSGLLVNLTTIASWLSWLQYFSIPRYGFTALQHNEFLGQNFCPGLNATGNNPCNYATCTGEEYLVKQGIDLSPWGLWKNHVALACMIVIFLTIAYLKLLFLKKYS


Assays:
OATP1B3 [1] = target: T1, OATP1B3; test: Static DDI risk assessment, OATP1B3 R-value; settings: 1 + Iin,max,u/IC50; metabolite/combination additive; Imax,u for IV
OATP1B1 [2] = settings: cited from earlier work
OATP1B1 [3] = target: T2, OATP1B1; test: Static DDI risk assessment, OATP1B1 R-value; settings: 1 + Iin,max,u/IC50; metabolite/combination additive; Imax,u for IV
[4] = cited from earlier work; for Rosuvastatin AUC ratio: observed, rosuvastatin with vs without inhibitor; for Rosuvastatin AUC ratio / Cmax ratio Observed: ref Table S1; for Cmax ratio Observed: rosuvastatin with/without inhibitor, regimens as in table row
BCRP = target: T3, BCRP; test: In vitro BCRP inhibition, HEK293-BCRP membrane vesicles, rosuvastatin probe; assay type: biochemical
OATP1B1 [5] = target: T2, OATP1B1; test: In vitro OATP1B1 inhibition, transfected HEK293 cells, rosuvastatin probe; assay type: cell-based
OATP1B3 [6] = target: T1, OATP1B3; test: In vitro OATP1B3 inhibition, transfected HEK293 cells, rosuvastatin probe; assay type: cell-based
BCRP (ABCG2 c.421C>A) = settings: cited from earlier work
[7] = substrate: CC(C)c1nc(N(C)S(C)(=O)=O)nc(-c2ccc(F)cc2)c1/C=C/[C@@H](O)C[C@@H](O)CC(=O)O; test: BCRP-mediated transport of substrate; assay type: in vitro ADME, human; settings: other: membrane vesicles
[8] = substrate: CC(C)c1nc(N(C)S(C)(=O)=O)nc(-c2ccc(F)cc2)c1/C=C/[C@@H](O)C[C@@H](O)CC(=O)O; test: OATP1B1-mediated transport of substrate; assay type: in vitro ADME; settings: other: transfected HEK293 cells

Molecule | 1B3 R-Value (OATP1B3 [1]) | 1B1 R-Value (OATP1B1 [3]) | Rosuvastatin AUC ratio [4] | Cmax ratio Observed [4] | IC50 (OATP1B1 [5]) [µM] | IC50 (OATP1B3 [6]) [µM] | IC50 (BCRP) [µM] | further results
C=C[C@@H]1C[C@]1(NC(=O)[C@@H]1C[C@@H]2CN1C(=O)[C@H](C(C)(C)C)NC(=O)O[C@@H]1C[C@H]1CCCCCc1nc3ccc(OC)cc3nc1O2)C(=O)NS(=O)(=O)C1CC1.O [Grazoprevir] | 1.07 | 1.24 | 1.59 | 4.25 | – | – | – | effect on clinical PK of pitavastatin (OATP1B1 probe substrate) (OATP1B1 [2]): do not alter; IC50 (BCRP; read-out: BCRP IC50, membrane vesicles, rosuvastatin 0.2 µM probe): 4.03 µM
C[C@H]1CN(C2COC2)CCN1c1ccc(Nc2cc(-c3ccnc(N4CCn5c(cc6c5CC(C)(C)C6)C4=O)c3CO)cn(C)c2=O)nc1 [Fenebrutinib] | 3.86 | 1.46 | 2.48 | 4.74 | 6.8 | 1.1 | 0.63 | change in plasma exposure of OATP1B1 biomarker coproporphyrin I (OATP1B1 [2]): no change; increase in rosuvastatin AUC [4]: ~ 150%
COC(=O)N[C@H](C(=O)N1CCC[C@H]1c1nc(-c2ccc3c(c2)O[C@@H](c2ccccc2)n2c-3cc3cc(-c4c[nH]c([C@@H]5CCCN5C(=O)[C@@H](NC(=O)OC)C(C)C)n4)ccc32)c[nH]1)C(C)C [Elbasvir] | 1.00 | 1.00 | 1.42 | – | 7.8 | > 10 | 0.14 | –
O=C(O)c1cc(/N=N/c2ccc(S(=O)(=O)Nc3ccccn3)cc2)ccc1O [sulfasalazine] | – | – | – | – | – | – | – | increase in oral exposure, c.421A/A vs c.421C/C carriers (BCRP (ABCG2 c.421C>A)): ≤ 3.5 fold
BCRP (Homo sapiens) (protein) MSSSNVEVFIPVSQGNTNGFPATASNDLKAFTEGAVLSFHNICYRVKLKSGFLPCRKPVEKEILSNINGIMKPGLNAILGPTGGGKSSLLDVLAARKDPSGLSGDVLINGAPRPANFKCNSGYVVQDDVVMGTLTVRENLQFSAALRLATTMTNHEKNERINRVIQELGLDKVADSKVGTQFIRGVSGGERKRTSIGMELITDPSILFLDEPTTGLDSSTANAVLLLLKRMSKQGRTIIFSIHQPRYSIFKLFDSLTLLASGRLMFHGPAQEALGYFESAGYHCEAYNNPADFFLDIINGDSTAVALNREEDFKATEIIEPSKQDKPLIEKLAEIYVNSSFYKETKAELHQLSGGEKKKKITVFKEISYTTSFCHQLRWVSKRSFKNLLGNPQASIAQIIVTVVLGLVIGAIYFGLKNDSTGIQNRAGVLFFLTTNQCFSSVSAVELFVVEKKLFIHEYISGYYRVSSYFLGKLLSDLLPMRMLPSIIFTCIVYFMLGLKPKADAFFVMMFTLMMVAYSASSMALAIAAGQSVVSVATLLMTICFVFMMIFSGLLVNLTTIASWLSWLQYFSIPRYGFTALQHNEFLGQNFCPGLNATGNNPCNYATCTGEEYLVKQGIDLSPWGLWKNHVALACMIVIFLTIAYLKLLFLKKYS | – | – | – | – | – | – | – | Km [7]: 3.2 µM
OATP1B1 (Homo sapiens) (protein) MDQNQHLNKTAEAQPSENKKTRYCNGLKMFLAALSLSFIAKTLGAIIMKSSIIHIERRFEISSSLVGFIDGSFEIGNLLVIVFVSYFGSKLHRPKLIGIGCFIMGIGGVLTALPHFFMGYYRYSKETNINSSENSTSTLSTCLINQILSLNRASPEIVGKGCLKESGSYMWIYVFMGNMLRGIGETPIVPLGLSYIDDFAKEGHSSLYLGILNAIAMIGPIIGFTLGSLFSKMYVDIGYVDLSTIRITPTDSRWVGAWWLNFLVSGLFSIISSIPFFFLPQTPNKPQKERKASLSLHVLETNDEKDQTANLTNQGKNITKNVTGFFQSFKSILTNPLYVMFVLLTLLQVSSYIGAFTYVFKYVEQQYGQPSSKANILLGVITIPIFASGMFLGGYIIKKFKLNTVGIAKFSCFTAVMSLSFYLLYFFILCENKSVAGLTMTYDGNNPVTSHRDVPLSYCNSDCNCDESQWEPVCGNNGITYISPCLAGCKSSSGNKKPIVFYNCSCLEVTGLQNRNYSAHLGECPRDDACTRKFYFFVAIQVLNLFFSALGGTSHVMLIVKIVQPELKSLALGFHSMVIRALGGILAPIYFGALIDTTCIKWSTNNCGTRGSCRTYNSTSFSRVYLGLSSMLRVSSLVLYIILIYAMKKKYQEKDINASENGSVMDEANLESLNKNKHFVPSAGADSETHC | – | – | – | – | – | – | – | Km [8]: 3.8 µM
